Experimental data reported in article PMC6933938, “Comparative physiological, metabolomic, and transcriptomic analyses reveal developmental stage-dependent effects of cluster bagging on phenolic metabolism in Cabernet Sauvignon grape berries” (BMC Plant Biology, 2019).

Molecular target: T1, VviFLS4 (Vitis vinifera, UniProt Q2PHJ7)
T1 construct: gene FLS4; pET-48b(+), printed as C-terminal 6xHis tag fusion; E. coli BL21(DE3), Ni2+ column; tag removal not mentioned
T1 sequence (Q2PHJ7 1-335): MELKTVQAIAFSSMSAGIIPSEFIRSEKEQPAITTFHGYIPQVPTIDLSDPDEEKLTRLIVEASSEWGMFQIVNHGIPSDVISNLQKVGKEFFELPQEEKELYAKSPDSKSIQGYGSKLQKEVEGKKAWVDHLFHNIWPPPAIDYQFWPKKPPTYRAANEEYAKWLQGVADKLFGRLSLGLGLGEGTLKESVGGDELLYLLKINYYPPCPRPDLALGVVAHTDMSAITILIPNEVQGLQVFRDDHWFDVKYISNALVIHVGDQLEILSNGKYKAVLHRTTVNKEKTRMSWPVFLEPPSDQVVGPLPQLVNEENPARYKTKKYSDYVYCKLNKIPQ
Assay: HPLC-MS product analysis
Type: biochemical
Conditions: converted to kaempferol; 0.5 uM substrate, 10 mM alpha-ketoglutaric acid, 0.25 mM FeSO4, 10 mM ascorbic acid, 100 mM NaH2PO4 pH 6.0, 25 C, 1 h

O=C1c2c(O)cc(O)cc2O[C@H](c2ccc(O)cc2)[C@H]1O [dihydrokaempferol]
HPLC-MS product analysis: DHK into kaempferol, and dihydroquercetin (DHQ) into quercetin, respectively
